{"source": "patent US20230193199A1", "about": "“Methods for Printing Functional Human Neural Tissue” (Wisconsin Alumni Research Foundation, priority 2021, published 2023)", "key": {"glutamate receptor": {"test_system": "glutamate receptor", "assay": "whole-cell patch-clamp recording of sEPSCs", "assay_type": "cell-based, human", "conditions": "holding potential −70 mV; CNQX 10 μM applied with D-APV 50", "procedure": "Whole-cell patch-clamp recordings were made from human PSC-derived cortical glutamatergic and GABAergic neurons. The bath solution consisted of 135 mM NaCl, 3 mM KCl, 2 mM CaCl2, 1 mM MgCl2, 10 mM HEPES, 11 mM glucose, 10 mM sucrose, pH 7.4. Recording pipettes were filled with an intracellular solution containing 120 mM potassium D-gluconate, 1 mM ethylene glycol-bis (β-aminoethyl ether) N,N,N′,N′-tetraacetic acid (EGTA), 10 mM 4-(2-hydroxyethyl)piperazine-1-ethanesulfonic acid (HEPES), 4 mM ATP-Mg, 0.3 mM GTP-Na, 10 mM phosphocreatine, 0.1 mM CaCl2, 1 mM MgCl2, pH 7.2, 280-290 mOsm/L. Briefly, the neurons were held at −70 mV to record the Na+/K+ channel activities with voltage-clamp model. […] Spontaneous excitatory postsynaptic currents (sEPSCs) and spontaneous inhibitory currents (sIPSCs) were recorded in gap-free mode at a holding potential of −70 mV and 0 mV, respectively. sEPSCs were blocked by application of the glutamate receptor antagonist 6-Cyano-7-nitroquinoxaline-2,3-dione (CNQX, 10 μM) and D-(−)-2-amino-5-phosphonopentanoic acid (D-APV, 50 sIPSCs were blocked by application of the GABAA receptor antagonist bicuculline (10 An Olympus BX51WI microscope was used to visualize neurons. A MultiClamp 700B amplifier (Axon instruments, Molecular Devices, Sunnyvale, Calif., USA) was used to investigate the voltage clamp and current clamp recordings. […]"}, "[1]": {"test_system": "hPSC-derived cortical neural progenitor cells (NPCs)", "assay": "Live/Dead assay of hPSC-NPCs cultured in fibrin gel", "assay_type": "cell-based, human", "procedure": "For cell culturing in the fibrin gel, dissociated hPSC-NPCs at a density of 1×10^6 were mixed with fibrinogen at the following concentrations (1, 2.5, 5, 10 and 20 mg/mL) as show in FIG. 5. 0.5 mg/mL aprotinin was added for preventing gel degradation. 1 μL of the fibrinogen-laden cells were dropped on the poly-O coated plates at RT (room temperature). 1 different concentrations of thrombin (0.5, 1, 2.5, 5 and 10 U) solution with 2.5 mM CaCl2 were then added and mixed with the cells-fibrinogen solution. Fresh medium was added after gelation. Cells were encapsulated in the fibrin gel constructs and cultured at 37° C. incubator for characterization. […] The cells, however, tended to aggregate at higher fibrinogen levels. Thus, 2.5 or 5 mg/mL fibrinogen with 0.5 or 1 U thrombin was used for identifying an optimal gelation time.\nThe cell viability was measured by Live/Dead assay. Briefly, Live/Dead® staining kit (Molecular Probes) was used to assess cell viability. Immediately after harvesting, the cells were incubated in DMEM/F12 containing 1 μM calcein AM and 2 μM ethidium homodimer I for 30 min. […] The number of live (green) and dead (red) cells were counted in each field using Cell Counter in Image-J. The live/dead cell numbers from the five images of one sample were averaged to give each data point and five samples were used to determine the viability."}}}
{"compound": "N#Cc1cc2c(cc1[N+](=O)[O-])=NC(=O)C(=O)N=2", "note": "[CNQX, 6-Cyano-7-nitroquinoxaline-2,3-dione]", "values": [{"measurement": "spontaneous excitatory postsynaptic currents (sEPSCs)", "setting": "glutamate receptor", "result": "blocked"}]}
{"compound": "N[C@H](CCCP(=O)(O)O)C(=O)O", "note": "[D-APV, D-(−)-2-amino-5-phosphonopentanoic acid]", "values": [{"measurement": "spontaneous excitatory postsynaptic currents (sEPSCs)", "setting": "glutamate receptor", "result": "blocked"}]}
{"compound": "fibrinogen", "values": [{"measurement": "cell viability (percent of live cells to total cells)", "setting": "[1]; increasing fibrinogen concentrations at fixed low thrombin (0.5 U)", "result": "not influenced"}]}
{"compound": "thrombin", "values": [{"measurement": "cell viability (percent of live cells to total cells)", "setting": "[1]; increasing thrombin concentrations at fixed fibrinogen 2.5 mg/ml", "result": "decreased with increasing thrombin concentrations"}]}
